Tests used:
Assay in all cases: relative viability (nuclei count vs DMSO), 5 days (fraction); higher = more cells survive
[1] = compound: COc1cc(-c2nn([C@H]3CC[C@H](N4CCN(C(C)=O)CC4)CC3)c3ncnc(N)c23)ccc1NC(=O)c1cc2ccccc2n1C
How it was run: (§1)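 MetaXpress counted nuclei in 4× images of lung cancer cell lines that had been fixed, permeabilised and Hoechst-stained in one step. Before that, cells in 1536-well plates were kept overnight at 37 °C, pinned with five √10-spaced library-drug doses on vehicle-anchored plates, and cultured 5 days without medium change. Viability takes treated-well nuclei over vehicle-well nuclei and uses the median across plates. Plates were accepted only at control CV below 25% and at least one doubling.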

Midostaurin = compound: CO[C@@H]1[C@H](N(C)C(=O)c2ccccc2)C[C@H]2O[C@]1(C)n1c3ccccc3c3c4c(c5c6ccccc6n2c5c31)C(=O)NC4 [Midostaurin]
How it was run: as §1

[2] = compound: COc1cc(-c2nn([C@H]3CC[C@H](N4CCN(C(C)=O)CC4)CC3)c3ncnc(N)c23)ccc1NC(=O)c1cc2ccccc2n1C + C[C@]1(O)C[C@@H](c2nc(-c3ccc4ccc(-c5ccccc5)nc4c3)c3c(N)nccn32)C1 [Linsitinib] (partner 1 µM)
How it was run: (§2)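 Relative viability equals treated-well nuclei counts divided by vehicle-well nuclei counts. Counts came from 4× images of lung cancer cell lines grown in 1536-well plates for 5 days after pin-tool dosing on the day after seeding. Dosing used one drug alone or a fixed anchor-drug dose plus five library-drug doses (not always all listed) in √10 steps, and values are medians of duplicate plates.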

Midostaurin + Decitabine = compound: CO[C@@H]1[C@H](N(C)C(=O)c2ccccc2)C[C@H]2O[C@]1(C)n1c3ccccc3c3c4c(c5c6ccccc6n2c5c31)C(=O)NC4 [Midostaurin] + Nc1ncn([C@H]2C[C@H](O)[C@@H](CO)O2)c(=O)n1 [Decitabine] (partner 2 µM)
How it was run: as §2

[3] = compound: COc1cc(-c2nn([C@H]3CC[C@H](N4CCN(C(C)=O)CC4)CC3)c3ncnc(N)c23)ccc1NC(=O)c1cc2ccccc2n1C + Cc1nc(NC(=O)N2CCC[C@H]2C(N)=O)sc1-c1ccnc(C(C)(C)C(F)(F)F)c1 [Alpelisib] (partner 2 µM)
How it was run: as §2

With UMC-11 the relative viability ([1]; 0.0128 µM) was 1.04, the relative viability ([1]; 0.04048 µM) was 0.955 and the relative viability ([1]; 0.128 µM) was 0.927. For the same cell line, the relative viability ([1]; 1.28 µM) was 0.84, the relative viability (Midostaurin; 0.01 µM) was 0.984 and the relative viability (Midostaurin; 0.03162 µM) was 0.901. For the same cell line, the relative viability (Midostaurin; 0.1 µM) was 1, the relative viability (Midostaurin; 0.3162 µM) was 0.617 and the relative viability ([2]; first compound 0.0128 µM) was 0.961. The relative viability ([2]; first compound 0.04048 µM) was 1.01, the relative viability ([2]; first compound 0.128 µM) was 0.984 and the relative viability ([2]; first compound 1.28 µM) was 0.781. The relative viability (Midostaurin + Decitabine; first compound 0.01 µM) was 0.655, the relative viability (Midostaurin + Decitabine; first compound 0.03162 µM) was 0.772 and the relative viability (Midostaurin + Decitabine; first compound 0.1 µM) was 0.637. The relative viability (Midostaurin + Decitabine; first compound 0.3162 µM) was 0.704, the relative viability ([3]; first compound 0.0128 µM) was 0.892 and the relative viability ([3]; first compound 0.04048 µM) was 0.956. It also gave a relative viability ([3]; first compound 0.128 µM) of 0.986 and a relative viability ([3]; first compound 1.28 µM) of 0.746.
